From the supplement of paper PMC11208160

Assay: recombinant barcode read abundance after kanamycin selection (control-corrected) (log10(CPM+1)); higher = more efficient recombination; sequences stand for … in AGTGCAGAGAAAATCGGCCAGTTTTCTCTGCCTGCAGTCCGCATGCCGT…AGATTTATGCAGCGGACTGCCTTTCTCCCAAAGTGATAAACCGGACAGTATCATGGACCGGTTTTCCCGGTAATCCGTATTTGCAAGGTTGGTTTCACT; site = the 11-nt target
How it was run: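 Each value is log10(CPM+1). It describes recombination efficiency, taken as averaged, control-corrected counts per million of barcodes at recombinant junctions. The pooled E. coli library paired targets with IS621 bridge RNA target-binding loops, was co-electroporated with a donor plasmid, and was plated twice on chloramphenicol/ampicillin LB agar (control) and twice on chloramphenicol/ampicillin/kanamycin containing 0.1 mM IPTG.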
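Also: IS621 recombinase and bridge RNA in Escherichia coli cells.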

Sequence	recombinant barcode read abundance (log10)
TAGCTAGCTTGGGTTCTAACCTGTTGCGT (site GCTTACCCTTA)	0.0618
GTCTCTCCTTGGGTTCTAACCTGTTGCAG (site AAGGGCTCTAA)	0.0245
GTGTACCCTTGGGTTCTAACCTGTTGCGT (site GTGTACCCTTC)	0.185
CGAAAATCTTGGGTTCTAACCTGTTGCCT (site CGAAAATCTAG)	0.0664
GCCACACCTTGGGTTCTAACCTGTTGCCT (site GCCACACCTAG)	0.222
ATTCGAGCTTGGGTTCTAACCTGTTGCGC (site ATTCGGGCTAC)	0.0665
TGGCCCTCTTGGGTTCTAACCTGTTGCTC (site TGGCCCTCTGA)	1.79
TATGGGTCTTGGGTTCTAACCTGTTGCCT (site TGTGGGTCTAG)	0.209
AGACAGACTTGGGTTCTAACCTGTTGCGT (site AGACAGACTAC)	3.32
AATACTACTTGGGTTCTAACCTGTTGCCT (site ACTACTACTAG)	0.0229
TGACATGCTTGGGTTCTAACCTGTTGCCT (site TGACATGCTAG)	1.37
GGTTGGCCTTGGGTTCTAACCTGTTGCGG (site GGTTGTCCTCC)	0.15
GTAATCCCTTGGGTTCTAACCTGTTGCCG (site GTAATCCCTTG)	0.572
GGACCCTCTTGGGTTCTAACCTGTTGCAC (site TACAAGACTAC)	0.0797
ATAACTACTTGGGTTCTAACCTGTTGCTT (site TACCTACCTTC)	0.0357
GCTGCGCCTTGGGTTCTAACCTGTTGCCT (site GCTGCGCCTAG)	1.05
TAAGGTACTTGGGTTCTAACCTGTTGCTT (site TAAAGTACTAA)	0.0963
GTAAGGACTTGGGTTCTAACCTGTTGCGG (site GTAAGGACTCC)	2.25
GACGGGGCTTGGGTTCTAACCTGTTGCAG (site GACGGGGCTCT)	2.59
CAGACGCCTTGGGTTCTAACCTGTTGCAG (site CAGACGCCTCT)	1.38
ACGCGAGCTTGGGTTCTAACCTGTTGCAG (site ACGCGAGCTCT)	0.142
TAGTATCCTTGGGTTCTAACCTGTTGCGT (site TAGTATCCTAC)	1.87

Sequence	recombinant barcode read abundance (log10)
AGACTGGCTTGGGTTCTAACCTGTTGCCT (site AGACTGGCTAG)	1.03
CATAGATCTTGGGTTCTAACCTGTTGCTT (site CACAGATCTAA)	0.385
GTCACTACTTGGGTTCTAACCTGTTGCCG (site GTCACTACTCG)	0.74
CGTCATCCTTGGGTTCTAACCTGTTGCCT (site CGTCAACCTAG)	0.0954
TGCCTATCTTGGGTTCTAACCTGTTGCCT (site TTCCTATCTAG)	0.0491
CTATTAACTTGGGTTCTAACCTGTTGCTA (site CTATTAACTTA)	0.328
ACAGCCGCTTGGGTTCTAACCTGTTGCCT (site ACAGCCGCTAG)	1.46
TTCGGGCCTTGGGTTCTAACCTGTTGCCT (site ATCGGGCCTAG)	0.0878
ATACGTACTTGGGTTCTAACCTGTTGCCT (site GTACGTACTAG)	0.067
CTCATATCTTGGGTTCTAACCTGTTGCTT (site CTCATATCTAA)	1.18
CATTATCCTTGGGTTCTAACCTGTTGCGT (site CATTGTCCTAC)	0.0752
CTGATTACTTGGGTTCTAACCTGTTGCCT (site CTGATAACTAG)	0.0337
CTTCGAGCTTGGGTTCTAACCTGTTGCGG (site CTTCGAGCTCC)	0.98
CCGCGTGCTTGGGTTCTAACCTGTTGCCT (site CAGCGTGCTAG)	0.161
TAGGGCGCTTGGGTTCTAACCTGTTGCCT (site TAAGGAGCTAG)	0.204
GCCATACCTTGGGTTCTAACCTGTTGCCT (site GCCATACCTAG)	0.199
TCCCGAACTTGGGTTCTAACCTGTTGCCT (site TCCCGAACTAG)	0.598
CCAGGTCCTTGGGTTCTAACCTGTTGCGT (site CCAGGTCCTAT)	1.81
ACAGGCGCTTGGGTTCTAACCTGTTGCCT (site ACAGTCGCTAG)	0.0488
TTGGCCGCTTGGGTTCTAACCTGTTGCCT (site TTGGCCGCTAG)	1.65
GCTAGTTCTTGGGTTCTAACCTGTTGCTT (site GCTAGTTCTAA)	0.351
CTACTTACTTGGGTTCTAACCTGTTGCCT (site CTAATTACTAG)	0.0298

Sequence	recombinant barcode read abundance (log10)
CCAACCGCTTGGGTTCTAACCTGTTGCCT (site CGAACCGCTAG)	0.043
GAGCGAGCTTGGGTTCTAACCTGTTGCTG (site GAGCGAGCTCC)	0.41
CTAATTCCTTGGGTTCTAACCTGTTGCAT (site CTAACTCCTAT)	0.0994
GGACATTCTTGGGTTCTAACCTGTTGCTT (site TGACATTCTAA)	0.0458
TTCAAGTCTTGGGTTCTAACCTGTTGCCT (site TTCAAGCCTAG)	0.198
GAGGGCACTTGGGTTCTAACCTGTTGCCA (site GAGAGCACTTG)	0.074
GCCCTCCCTTGGGTTCTAACCTGTTGCCT (site GCTCTCCCTAG)	0.597
CACGCCTCTTGGGTTCTAACCTGTTGCCT (site GACGCCTCTAG)	0.385
CCTTCCTCTTGGGTTCTAACCTGTTGCCT (site CATTCCTCTAG)	0.018
GTCTGCCCTTGGGTTCTAACCTGTTGCCT (site GGCTGCCCTAG)	0.239
GACGTAGCTTGGGTTCTAACCTGTTGCCT (site GGCGTAGCTAG)	0.52
TTAGTTCCTTGGGTTCTAACCTGTTGCCT (site TTAGTTCCTAG)	0.634
ATATGAGCTTGGGTTCTAACCTGTTGCTT (site ACATGACCTAA)	0.177
CTACTTACTTGGGTTCTAACCTGTTGCCT (site CTAGTTACTAG)	0
TAGCACCCTTGGGTTCTAACCTGTTGCCC (site TAGCACCCTAG)	0.681
AGATCCACTTGGGTTCTAACCTGTTGCCT (site TGATCCACTAG)	0.0724
ACGAACGCTTGGGTTCTAACCTGTTGCCT (site ACGAACGCTAG)	1.64
CGAGGGTCTTGGGTTCTAACCTGTTGCCT (site CGAGGGCCTAG)	0.279
ATTAAATCTTGGGTTCTAACCTGTTGCCT (site ATTAATCCTAG)	0.485
AACCCTACTTGGGTTCTAACCTGTTGCCT (site TACCCTACTAG)	0.193
CCACTGTCTTGGGTTCTAACCTGTTGCCT (site CCACAGTCTAG)	0.806
ACCAATTCTTGGGTTCTAACCTGTTGCCT (site ACCAATACTAG)	0.059

Sequence	recombinant barcode read abundance (log10)
TTGAGGCCTTGGGTTCTAACCTGTTGCCT (site CTGAGGCCTAG)	0.0268
ACCTGTCCTTGGGTTCTAACCTGTTGCCT (site ACCTGACCTAG)	0.269
GAGTTACCTTGGGTTCTAACCTGTTGCGT (site GAGTTACCTAC)	2.6
GGTGGGGCTTGGGTTCTAACCTGTTGCTG (site GGTGGGGCTCA)	2.24
AGGACTTCTTGGGTTCTAACCTGTTGCCT (site AGGACTTCTAG)	0.618
GAGTACTCTTGGGTTCTAACCTGTTGCTA (site GAGTCTTCTTA)	0.00735
CATTGGACTTGGGTTCTAACCTGTTGCTT (site GATTGGACTAA)	0.023
TCTAAACCTTGGGTTCTAACCTGTTGCAT (site TCTAACCCTAT)	0.142
GGAAGGCCTTGGGTTCTAACCTGTTGCTT (site TTGGTCACTTG)	0.0545
TCTTGTCCTTGGGTTCTAACCTGTTGCGC (site TCTTGTCCTTC)	0.0581
TCTGGGGCTTGGGTTCTAACCTGTTGCGG (site TCTGGGGCTCG)	0.271
TAGGCCACTTGGGTTCTAACCTGTTGCGT (site TAGGCCACTAT)	1.7
TTAGTTCCTTGGGTTCTAACCTGTTGCCT (site TTAGTCCCTAG)	0.186
AATGGGTCTTGGGTTCTAACCTGTTGCCT (site AATGGGTCTAG)	1.3
ATGTCCTCTTGGGTTCTAACCTGTTGCCA (site ATGTCCTCTTG)	1.02
GCCTGGGCTTGGGTTCTAACCTGTTGCCT (site GCCTTGGCTAG)	0.438
CAACCGGCTTGGGTTCTAACCTGTTGCCT (site CAACCGCCTAG)	0.255
AGAGGGACTTGGGTTCTAACCTGTTGCCT (site AGAGTGACTAG)	0.0172
GCATGAGCTTGGGTTCTAACCTGTTGCCT (site GCCTGAGCTAG)	0.122
GGCTGTTCTTGGGTTCTAACCTGTTGCCT (site GGCTGTTCTAG)	0.334
